# Several values for one entry are separate records, joined by “and”; a condition that tells them apart may be missing. Equal entries are not always repeated.
# How the values were obtained:
# Procollagen1a = Procollagen1a ELISA; type: cell-based, mouse; conditions: for Pro-collagen1a protein expression (result in words): NIH3T3, 72 hours, ELISA; for Procollagen1a expression (%): NIH3T3 medium, 72 hours, control = 100
# Experimental: Mouse fibroblast NIH3T3 was seeded in a 6-well plate at a density of 5×10^3 cells/well, and then cultured overnight. Subsequently, the media were changed to 0.05% FBS-containing media, followed by culturing for 4 hours. Then, treatment with the positive control, i.e., 100 nM IGF-1, and the peptide consisting of an amino acid sequence of SEQ ID NO: 1, 2, 3, or 4 were performed and cultured for 72 hours. Then, the media were collected. The amount in the medium was measured using Procollagen1a ELISA kit (Usbiological Lifescience, USA).
# [1] = test system: collagen1a, fibronectin, elastin mRNA; assay: RT-PCR of collagen1a, fibronectin and elastin in fibroblasts; type: cell-based, mouse; conditions: 10 μM or 50 μM, NIH3T3, 24 hours
# Experimental: Mouse fibroblast NIH3T3 was seeded in a 6-well plate at a density of 5×10^3 cells/well, and then cultured overnight. Subsequently, the media were changed to 0.05% FBS-containing media, followed by culturing for 4 hours. Then, treatment with the positive control, i.e., 100 nM IGF-1, and 10 μM or 50 μM of the peptide consisting of an amino acid sequence of SEQ ID NO: 1, 2, 3, or 4 were performed and cultured for 24 hours. Then, the cells were cultured and collected to isolate RNA. cDNA was synthesized using a cDNA synthesis kit (Intron, Korea) after quantification of RNA, and PCR was carried out using primers of each of PCR premix (Intron, Korea) and collagen1a, fibronectin, elastin, GAPDH in Table 4. Then, the cells were run on 5% agarose gel, and degrees of mRNA expression of the growth factors were compared in each peptide treatment condition.
# Mouse fibroblast NIH3T3 = assay: Promotion of proliferation of fibroblasts (MTT assay); type: cell-based; conditions: NIH3T3, 3 days; for Fibroblast proliferation (result in words): 10 μM or 50 μM; for Fibroblast proliferation (%): MTT, control = 100
# Experimental: Mouse fibroblast NIH3T3 was seeded in a 96-well plate at a density of 5×10^3 cells/well, and then cultured overnight. Subsequently, the media were changed to 0.05% serum-containing media. Then, treatment with the positive control, i.e., 100 nM bFGF, and 10 μM or 50 μM of the peptide consisting of an amino acid sequence of SEQ ID NO: 1, 2, 3, or 4 were performed and cultured for 3 days. Then, 4 mg/mL MTT solution treatment was performed, and the reaction was carried out for 4 hours. Then, the resulting formazan was dissolved by treatment with dimethyl sulfoxide (hereinafter referred to as “DMSO”), and the absorbance at 560 nm was measured using a microplate reader.
# Human keratinocyte HaCaT = assay: Promotion of proliferation of keratinocytes (MTT assay); type: cell-based; conditions: 3 days, control = 100
# Experimental: Human keratinocyte HaCaT was seeded in a 6-well plate at a density of 3×10^5 cells/well, and then cultured overnight. Subsequently, the media were changed to 0.05% serum-containing media. Then, treatment with the positive control, i.e., 10 nM EGF, and 10 μM or 50 μM of the peptide consisting of an amino acid sequence of SEQ ID NO: 1, 2, 3, or 4 were performed and cultured for 3 days. Then, 4 mg/mL MTT solution treatment was performed, and the reaction was carried out for 4 hours. Then, the resulting formazan was dissolved by treatment with dimethyl sulfoxide (hereinafter referred to as “DMSO”), and the absorbance at 560 nm was measured using a microplate reader.
# [2] = test system: MAPK (ERK, p38, and JNK) and AKT; assay: Phosphorylation level of MAPK and AKT in fibroblasts (western blotting); type: cell-based, mouse; conditions: 10 μM or 50 μM, NIH3T3, 30 minutes
# Experimental: Mouse fibroblast NIH3T3 was seeded in a 6-well plate at a density of 5×10^3 cells/well, and then cultured overnight. Subsequently, the media were changed to 0.05% FBS-containing media. Then, treatment with the positive control, i.e., 100 nM bFGF, and 10 μM or 50 μM of the peptide consisting of an amino acid sequence of SEQ ID NO: 1, 2, 3, or 4 were performed and cultured for 30 minutes. Then, the cells were collected to prepare cell lysate. Then, western blotting was performed using P-MAPK (p-Erk, p-JNK, p-p38) and p-Akt or actin antibody (Santacruz Biotechnology, USA).
# HA = HA ELISA; type: cell-based, human; conditions: 72 hours; for HA expression: HaCaT medium, control 251
# Experimental: Human keratinocyte HaCaT was seeded in a 6-well plate at a density of 3×10^5 cells/well, and then cultured overnight. The media were changed to 0.05% FBS-containing media, followed by culturing for 4 hours. Then, treatment with the positive control, i.e., 100 nM IGF-1, and the peptide consisting of an amino acid sequence of SEQ ID NO: 2 were performed and cultured for 72 hours. Then, the media were collected. An HA ELISA kit (Echelon, USA) was used to measure an amount thereof.
# AQP3 = assay: RT-PCR of AQP3 (Aquaporin3) and SIRT1 in keratinocytes; type: cell-based, human; conditions: 10 μM or 50 μM, HaCaT, 24 hours
# Experimental: Human keratinocyte HaCaT was seeded in a 6-well plate at a density of 3×10^5 cells/well, and then cultured overnight. Subsequently, the media were changed to 0.05% FBS-containing media, followed by culturing for 4 hours. Then, treatment with the positive control, i.e., 100 nM EGF, and 10 μM or 50 μM of the peptide consisting of an amino acid sequence of SEQ ID NO: 1 or 2 were performed and cultured for 24 hours. Then, the cells were cultured and collected to isolate RNA. cDNA was synthesized using a cDNA synthesis kit (Intron, Korea) after quantification of RNA, and PCR was carried out using primers of each of PCR premix (Intron, Korea) and AQP3, SIRT1, and GAPDH in Table 5. Then, the cells were run on 5% agarose gel, and degrees of mRNA expression of the growth factors were compared in each peptide treatment condition.
# [3] = test system: collagen 1a, fibronectin, and elastin; assay: Expression amount of collagen1a, fibronectin and elastin protein (antibody staining, fluorescence microscope); type: cell-based, mouse; conditions: NIH3T3, 24 hours
# Experimental: Mouse fibroblast NIH3T3 was seeded in a 6-well plate at a density of 5×10^3 cells/well, and then cultured overnight. Subsequently, the media were changed to 0.05% serum-free media. Then, treatment with the positive control, i.e., 100 nM EGF, and the peptide consisting of an amino acid sequence of SEQ ID NO: 1 or 2 were performed and cultured for 24 hours. Then, the cells were fixed for 30 minutes using 4% paraformaldehyde. Then, after washing 3 times, the cells were reacted with 0.5% Triton X-100 for 15 minutes and washed again 3 times. Then, 3% BSA was blocked for 1 hour and the primary antibody (1:100) for collagen 1a, fibronectin, and elastin was reacted overnight at 4° C. Then, the secondary antibody (1:500) was reacted at room temperature for 2 hours, stained with DAPI staining, and observation was made with a fluorescence microscope.
# ERK and p38 = assay: Phosphorylation level of MAPK and AKT in keratinocytes (western blotting); type: cell-based, human; conditions: 10 μM or 50 μM, HaCaT, 30 minutes
# Experimental: Human keratinocyte HaCaT was seeded in a 6-well plate at a density of 3×10^5 cells/well, and then cultured overnight. Subsequently, the media were changed to 0.05% FBS-containing media. Then, treatment with the positive control, i.e., 10 nM EGF, and 10 μM or 50 μM of the peptide consisting of an amino acid sequence of SEQ ID NO: 1 or 2 were performed and cultured for 30 minutes. Then, the cells were collected to prepare cell lysate. Then, western blotting was performed using P-MAPK (p-Erk, p-JNK, p-p38) and p-Akt antibody (Santacruz Biotechnology, USA).
Substance,Pro-collagen1a protein expression (result in words) (Procollagen1a),Procollagen1a expression (%) (Procollagen1a; peptide 10 μM),Procollagen1a expression (%) (Procollagen1a; peptide 50 μM),"mRNA expression of collagen, fibronectin and elastin (result in words) [1]",Fibroblast proliferation (result in words) (Mouse fibroblast NIH3T3),Fibroblast proliferation (%) (Mouse fibroblast NIH3T3; peptide 10 μM),Fibroblast proliferation (%) (Mouse fibroblast NIH3T3; peptide 50 μM),Keratinocyte proliferation (%) (Human keratinocyte HaCaT; peptide 10 μM),Keratinocyte proliferation (%) (Human keratinocyte HaCaT; peptide 50 μM),Phosphorylation of MAPK and AKT in fibroblasts (result in words) [2],Keratinocyte proliferation (%) (Human keratinocyte HaCaT; positive control 10 nM),Procollagen1a expression (%) (Procollagen1a; positive control 100 nM),HA expression (HA; positive control 100 nM),"HA expression (result in words) (HA; HaCaT, ELISA)",HA expression (HA; peptide 10 μM),HA expression (HA; peptide 50 μM),AQP3 expression (result in words) (AQP3),"Protein expression of collagen, fibronectin and elastin (result in words) [3]",Phosphorylation of MAPK in keratinocytes (result in words) (ERK and p38),Fibroblast proliferation (%) (Mouse fibroblast NIH3T3; positive control 100 nM)
EDEFKPPAAGR [SEQ ID NO: 4],expression of pro-collagen1a protein was found to increase,122%,141%,"increasing expression of mRNA of collagen, fibronectin, and elastin",promote fibroblast proliferation,114%,193%,113%,142%,"activation of MAPK (ERK, p38, and JNK) and AKT",,,,,,,,,,
"EGF: positive control, 10 nM EGF, in the keratinocyte tests [reference compound]",,,,,,,,,,,187% and 142% and 152%,,,,,,,,,
GPVH [SEQ ID NO: 3],expression of pro-collagen1a protein was found to increase,138%,143%,"increasing expression of mRNA of collagen, fibronectin, and elastin",promote fibroblast proliferation,194%,261%,183%,197%,"activation of MAPK (ERK, p38, and JNK) and AKT",,,,,,,,,,
"IGF-1: positive control, 100 nM IGF-1, in the ELISA and RT-PCR tests [reference compound]",,,,,,,,,,,,113% and 140%,280 ng/mL,,,,,,,
ILGRWCG [SEQ ID NO: 2],expression of pro-collagen1a protein was found to increase,145%,146%,"increasing expression of mRNA of collagen, fibronectin, and elastin",promote fibroblast proliferation,188%,253%,111%,119%,"activation of MAPK (ERK, p38, and JNK) and AKT",,,,increasing HA expression,286 ng/mL,292 ng/mL,increasing AQP3 expression,"increasing expression of proteins of collagen, fibronectin, and elastin",activation of ERK and p38,
KWGGGRY [SEQ ID NO: 1],expression of pro-collagen1a protein was found to increase,98%,157%,"increasing expression of mRNA of collagen, fibronectin, and elastin",promote fibroblast proliferation,170%,194%,120%,136%,"activation of MAPK (ERK, p38, and JNK) and AKT",,,,,,,increasing AQP3 expression,"increasing expression of proteins of collagen, fibronectin, and elastin",activation of ERK and p38,
"bFGF: positive control, 100 nM bFGF, in the fibroblast tests [reference compound]",,,,,,,,,,,,,,,,,,,,386% and 279% and 400%
